Results published in US20100003217A1, “Compounds and Pharmaceutical Compositions for the Treatment of Viral Infections” (priority 2008, published 2010).
Values joined by “and” are separate entries in the source; they are usually repeats but may differ in a detail not shown here. Equal entries are not always repeated.

Tested on: rat primary hepatocytes
Experiment: Metabolic disposition of [^14C]-Compound 1 and [^14C]-2′-C-methyl guanosine in rat primary hepatocytes (incubation medium, cellular extracts, nucleotide levels)
Type: in vitro ADME, Sprague Dawley rat
Conditions: for AUC (area under the concentration-time curve) of Compound 7 levels: 0-24 h
Summary of the method: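 Rat, monkey or human primary hepatocytes on collagen I plates (1.6 million cells/mL) were incubated at 37° C with 1 or 10 μM C-8 [^14C]-labelled compound or 2′-C-methyl guanosine for 1, 4, 8 and 24 hours. Medium and 70% methanol cell extracts were analysed by LSC and radio-HPLC. Nucleotides were identified by alkaline phosphatase treatment and retention-time matching to standards.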

[1] = rat hepatocytes (Rs458), 1 μM [^14C]-Compound 1, 1 h
[2] = rat hepatocytes (Rs458), 1 μM [^14C]-Compound 1, 8 h
[3] = rat hepatocytes (Rs458), 1 μM [^14C]-Compound 1, 24 h
[4] = rat hepatocytes Rs448, 10 μM [^14C]-2′-C-methyl guanosine, 1 h
[5] = rat hepatocytes Rs448, 10 μM [^14C]-2′-C-methyl guanosine, 4 h
[6] = rat hepatocytes Rs448, 10 μM [^14C]-2′-C-methyl guanosine, 8 h
[7] = rat hepatocytes Rs448, 10 μM [^14C]-2′-C-methyl guanosine, 24 h
[8] = rat hepatocytes Rs458, 1 μM [^14C]-2′-C-methyl guanosine, 1 h
[9] = rat hepatocytes Rs458, 1 μM [^14C]-2′-C-methyl guanosine, 8 h
[10] = rat hepatocytes Rs458, 1 μM [^14C]-2′-C-methyl guanosine, 24 h
[11] = rat hepatocytes Rs458, 10 μM [^14C]-2′-C-methyl guanosine, 1 h
[12] = rat hepatocytes Rs458, 10 μM [^14C]-2′-C-methyl guanosine, 4 h
[13] = rat hepatocytes Rs458, 10 μM [^14C]-2′-C-methyl guanosine, 8 h
[14] = rat hepatocytes Rs458, 10 μM [^14C]-2′-C-methyl guanosine, 24 h

Structure (SMILES): C[C@@]1(O)[C@H](O)[C@@H](COP(=O)(O)OP(=O)(O)OP(=O)(O)O)O[C@H]1n1cnc2c(=O)[nH]c(N)nc21 [Compound 7, [(2R)-2-methyl-β-D-ribofuranosyl]guanine 5′-triphosphate]
- metabolites observed in cellular extracts (% of total radioactivity) (rat hepatocytes (Rs448, Rs458), 10 μM [^14C]-Compound 1, 1 h, listed as Compd 7): 59.0% and 50.8%
- metabolites observed in cellular extracts (% of total radioactivity) (rat hepatocytes (Rs448, Rs458), 10 μM [^14C]-Compound 1, 4 h, listed as Compd 7): 70.9% and 69.1%
- metabolites observed in cellular extracts (% of total radioactivity) (rat hepatocytes (Rs448, Rs458), 10 μM [^14C]-Compound 1, 8 h, listed as Compd 7): 73.0% and 72.5%
- metabolites observed in cellular extracts (% of total radioactivity) (rat hepatocytes (Rs448, Rs458), 10 μM [^14C]-Compound 1, 24 h, listed as Compd 7): 66.2% and 54.5%
- 2′-C-methyl guanosine nucleotide levels in cellular extracts [1]: 80.0 pmol/million cells
- metabolites observed in cellular extracts (% of total radioactivity) [1]: 50.5%
- 2′-C-methyl guanosine nucleotide levels in cellular extracts [2]: 238 pmol/million cells
- metabolites observed in cellular extracts (% of total radioactivity) [2]: 77.6%
- 2′-C-methyl guanosine nucleotide levels in cellular extracts [3]: 103 pmol/million cells
- metabolites observed in cellular extracts (% of total radioactivity) [3]: 62.1%
- Compound 7 AUC0-24h (rat hepatocytes (n=1), 1 μM [^14C]-2′-C-methyl guanosine): 458 pmol*h/million cells
- Compound 7 AUC0-24h (rat hepatocytes (n=1), 1 μM [^14C]-Compound 1): 3,881 pmol*h/million cells
- 2′-C-methyl guanosine nucleotide levels in cellular extracts (rat hepatocytes Rs448, 10 μM [^14C]-2′-C-methyl guanosine, 0 h): 0 pmol/million cells
- AUC (area under the concentration-time curve) of Compound 7 levels (rat hepatocytes Rs448, 10 μM [^14C]-2′-C-methyl guanosine): 5906 pmol * hr/million cells
- 2′-C-methyl guanosine nucleotide levels in cellular extracts [4]: 28.0 pmol/million cells
- Major metabolites observed in cellular extracts (% of total radioactivity) [4]: 5.21 % of total radioactivity
- 2′-C-methyl guanosine nucleotide levels in cellular extracts [5]: 141 pmol/million cells
- Major metabolites observed in cellular extracts (% of total radioactivity) [5]: 17.9 % of total radioactivity
- 2′-C-methyl guanosine nucleotide levels in cellular extracts [6]: 258 pmol/million cells and 287 pmol/million cells
- Major metabolites observed in cellular extracts (% of total radioactivity) [6]: 24.1 % of total radioactivity
- 2′-C-methyl guanosine nucleotide levels in cellular extracts [7]: 347 pmol/million cells
- Major metabolites observed in cellular extracts (% of total radioactivity) [7]: 35.6 % of total radioactivity
- 2′-C-methyl guanosine nucleotide levels in cellular extracts (rat hepatocytes Rs448, 10 μM [^14C]-Compound 1, 0 h): 0 pmol/million cells
- AUC (area under the concentration-time curve) of Compound 7 levels (rat hepatocytes Rs448, 10 μM [^14C]-Compound 1): 31568 pmol * hr/million cells
- 2′-C-methyl guanosine nucleotide levels in cellular extracts (rat hepatocytes Rs448, 10 μM [^14C]-Compound 1, 1 h): 580 pmol/million cells
- 2′-C-methyl guanosine nucleotide levels in cellular extracts (rat hepatocytes Rs448, 10 μM [^14C]-Compound 1, 4 h): 1429 pmol/million cells
- 2′-C-methyl guanosine nucleotide levels in cellular extracts (rat hepatocytes Rs448, 10 μM [^14C]-Compound 1, 8 h): 1791 pmol/million cells
- 2′-C-methyl guanosine nucleotide levels in cellular extracts (rat hepatocytes Rs448, 10 μM [^14C]-Compound 1, 24 h): 937 pmol/million cells
- AUC (area under the concentration-time curve) of Compound 7 levels (rat hepatocytes Rs458, 1 μM [^14C]-2′-C-methyl guanosine): 458 pmol * hr/million cells
- 2′-C-methyl guanosine nucleotide levels in cellular extracts [8]: 2.60 pmol/million cells
- Major metabolites observed in cellular extracts (% of total radioactivity) [8]: 4.56 % of total radioactivity
- 2′-C-methyl guanosine nucleotide levels in cellular extracts [9]: 20.1 pmol/million cells
- Major metabolites observed in cellular extracts (% of total radioactivity) [9]: 26.1 % of total radioactivity
- 2′-C-methyl guanosine nucleotide levels in cellular extracts [10]: 27.0 pmol/million cells
- Major metabolites observed in cellular extracts (% of total radioactivity) [10]: 34.1 % of total radioactivity
- AUC (area under the concentration-time curve) of Compound 7 levels (rat hepatocytes Rs458, 1 μM [^14C]-Compound 1): 3881 pmol * hr/million cells
- 2′-C-methyl guanosine nucleotide levels in cellular extracts (rat hepatocytes Rs458, 10 μM [^14C]-2′-C-methyl guanosine, 0 h): 0 pmol/million cells
- AUC (area under the concentration-time curve) of Compound 7 levels (rat hepatocytes Rs458, 10 μM [^14C]-2′-C-methyl guanosine): 5384 pmol * hr/million cells
- 2′-C-methyl guanosine nucleotide levels in cellular extracts [11]: 23.0 pmol/million cells
- Major metabolites observed in cellular extracts (% of total radioactivity) [11]: 4.42 % of total radioactivity
- 2′-C-methyl guanosine nucleotide levels in cellular extracts [12]: 113 pmol/million cells
- Major metabolites observed in cellular extracts (% of total radioactivity) [12]: 16.2 % of total radioactivity
- 2′-C-methyl guanosine nucleotide levels in cellular extracts [13]: 239 pmol/million cells
- Major metabolites observed in cellular extracts (% of total radioactivity) [13]: 27.0 % of total radioactivity
- 2′-C-methyl guanosine nucleotide levels in cellular extracts [14]: 319 pmol/million cells
- Major metabolites observed in cellular extracts (% of total radioactivity) [14]: 33.9 % of total radioactivity
- 2′-C-methyl guanosine nucleotide levels in cellular extracts (rat hepatocytes Rs458, 10 μM [^14C]-Compound 1, 0 h): 0 pmol/million cells
- AUC (area under the concentration-time curve) of Compound 7 levels (rat hepatocytes Rs458, 10 μM [^14C]-Compound 1): 28123 pmol * hr/million cells
- 2′-C-methyl guanosine nucleotide levels in cellular extracts (rat hepatocytes Rs458, 10 μM [^14C]-Compound 1, 1 h): 534 pmol/million cells
- 2′-C-methyl guanosine nucleotide levels in cellular extracts (rat hepatocytes Rs458, 10 μM [^14C]-Compound 1, 4 h): 1347 pmol/million cells
- 2′-C-methyl guanosine nucleotide levels in cellular extracts (rat hepatocytes Rs458, 10 μM [^14C]-Compound 1, 8 h): 1618 pmol/million cells
- 2′-C-methyl guanosine nucleotide levels in cellular extracts (rat hepatocytes Rs458, 10 μM [^14C]-Compound 1, 24 h): 770 pmol/million cells
- Compound 7 maximal levels (rat hepatocytes, 1 μM [^14C]-Compound 1): 103 pmol/million cells
- Maximum Compound 7 levels (rat hepatocytes, 10 μM [^14C]-2′-C-methyl guanosine, at 24 hours): 249 pmol/million cells
- Compound 7 AUC0-24h (rat hepatocytes, 10 μM [^14C]-Compound 1): 29,846 pmol*h/million cells
- Compound 7 maximum levels (rat hepatocytes, 10 μM [^14C]-Compound 1, at 8 hours): 1,705 pmol/million cells
